Values of other authors, collected in patent publication US5688524A, “Transdermal formulations for administering prazosin” (Cygnus, Inc., priority 1993, dated 1997).

Columns and labels:
[1] = test system: benign prostatic hypertrophy (BPH); settings: in vivo
[2] = oral; incomplete absorption, GI degradation, first pass liver metabolism

For COc1cc2nc(N3CCN(C(=O)c4ccco4)CC3)nc(N)c2cc1OC [prazosin], the “effect in treating benign prostatic hypertrophy (BPH)” value [1] is given as “effective in treating benign prostatic hypertrophy (BPH)” and the bioavailability [2] is given as “incomplete bioavailability”.
